Test results taken from US20080274892A1, “Novel Haloalkylsulfonanilide Derivative, Herbicide, and Method of Use Thereof” (priority 2005, published 2008).

Assays:
bulrush [1] = assay: Test Example 1: herbicidal efficacy on rice paddy weeds pre-emergence; type: in vivo, Scirpus juncoides; conditions: dosage 1000 g/ha, 21 days
false pimpernel [2] = assay: as above; type: in vivo, Lindernia pyxidaria; conditions: dosage 1000 g/ha, 21 days
barnyard glass = assay: Test Example 2: herbicidal efficacy on rice paddy weeds post-emergence; type: in vivo, Echinochloa crus-galli; conditions: dosage 1000 g/ha; post-emergence, one leaf stage; 21 days after treatment
In short: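 Plastic pots of 75 cm^2 were filled with clay loam soil and sown with barnyard glass and bulrush seeds, then topped with 75 cm^3 soil containing false pimpernel seeds. The pots were flooded to 5 cm water depth and held in a hot house. Twenty-one days after treatment, herbicidal efficacy was graded against an untreated control.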

bulrush [3] = assay: as above; type: in vivo, Scirpus juncoides; conditions: dosage 1000 g/ha; post-emergence, one leaf stage; 21 days after treatment
false pimpernel [4] = assay: as above; type: in vivo, Lindernia pyxidaria; conditions: dosage 1000 g/ha; post-emergence, one leaf stage; 21 days after treatment
[5] = system: paddy rice plant (cultivar: Nihonbare); assay: Test Example 3: phytotoxicity test for transplanted paddy rice plant; type: in vivo; conditions: dosage 1000 g/ha; transplanted rice, treated 5 days after transplantation; 21 days after treatment
In short: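 Clay loam soil was placed in a 75 cm^2 plastic pot and flooded to a water depth of 5 cm. Two Nihonbare paddy rice plants at the two-leaf stage were transplanted 1 cm deep and grown in a hot house. After treatment, pots stayed in the hot house for 21 days, and phytotoxicity was then graded against an untreated control.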

bulrush [6] = assay: Test Example 4: low dosage test for rice paddy weeds; type: in vivo, Scirpus juncoides; conditions: 300 g/ha as an active ingredient; plants treated at the one leaf stage; 21 days after treatment; vs untreated control
In short: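 Bulrush sown in clay loam pots, flooded to 5 cm water in a hot house, treated at the one-leaf stage with formulated compound at 300 g/ha. Efficacy scored 0–4 against untreated control 21 days after treatment (4 = 90–100%, 0 = 0% inhibition).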

[7] = system: transplanted paddy rice plant and Bulrush; assay: Test Example 5: selectivity between transplanted paddy rice plant and weeds; type: in vivo; conditions: (highest dosage with no phytotoxicity to paddy rice)/(lowest dosage with effective level 4 on Bulrush); rice 3000-100 g/ha, Bulrush 300-10 g/ha; 21 days
In short: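 Transplanted paddy rice was treated at 3000, 1000, 300 and 100 g/ha active ingredient for phytotoxicity, and post-emergence bulrush at 300, 100, 30 and 10 g/ha. Plants were kept in a hothouse for 21 days. Growth inhibition versus untreated control was scored 0–4 (0%, 1–39%, 40–69%, 70–89%, 90–100%).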

SMILES | Bulrush pre (herbicidal efficacy grade) (bulrush [1]) | False pimpernel pre (herbicidal efficacy grade) (false pimpernel [2]) | Burnyard grass post (herbicidal efficacy grade) (barnyard glass) | Bulrush post (herbicidal efficacy grade) (bulrush [3]) | False pimpernel post (herbicidal efficacy grade) (false pimpernel [4]) | Phytotoxicity to paddy rice [5] | Herbicide effect to Bulrush (bulrush [6]) | Selective Index [7]
COC(=O)N(c1ccccc1CN1CC(C)(C)OC1=O)S(=O)(=O)C(F)(F)F [1-64] | 4 (90%-100% of herbicidal efficacy or phytotoxicity) | 4 (90%-100% of herbicidal efficacy or phytotoxicity) | 4 (90%-100% of herbicidal efficacy or phytotoxicity) | 4 (90%-100% of herbicidal efficacy or phytotoxicity) | 4 (90%-100% of herbicidal efficacy or phytotoxicity) | 2 (40%-69% of herbicidal efficacy or phytotoxicity) | 4 (90%-100% of herbicidal efficacy or phytotoxicity) | ≧30
CC1(C)CN(Cc2ccccc2N(C(=O)OCC(Cl)(Cl)Cl)S(=O)(=O)C(F)(F)F)C(=O)O1 [1-65] | 4 (90%-100% of herbicidal efficacy or phytotoxicity) | 4 (90%-100% of herbicidal efficacy or phytotoxicity) | 4 (90%-100% of herbicidal efficacy or phytotoxicity) | 4 (90%-100% of herbicidal efficacy or phytotoxicity) | 4 (90%-100% of herbicidal efficacy or phytotoxicity) | 1 (1%-39% of herbicidal efficacy or phytotoxicity) | 4 (90%-100% of herbicidal efficacy or phytotoxicity) | 10
CC(C)(C)COC(=O)N(c1ccccc1CN1CC(C)(C)OC1=O)S(=O)(=O)C(F)(F)F [1-66] | 4 (90%-100% of herbicidal efficacy or phytotoxicity) | 4 (90%-100% of herbicidal efficacy or phytotoxicity) | 4 (90%-100% of herbicidal efficacy or phytotoxicity) | 4 (90%-100% of herbicidal efficacy or phytotoxicity) | 4 (90%-100% of herbicidal efficacy or phytotoxicity) | 1 (1%-39% of herbicidal efficacy or phytotoxicity) | 4 (90%-100% of herbicidal efficacy or phytotoxicity) | ≧30
CCC(C)COC(=O)N(c1ccccc1CN1CC(C)(C)OC1=O)S(=O)(=O)C(F)(F)F (centres unmarked) [1-67] | 4 (90%-100% of herbicidal efficacy or phytotoxicity) | 4 (90%-100% of herbicidal efficacy or phytotoxicity) | 4 (90%-100% of herbicidal efficacy or phytotoxicity) | 4 (90%-100% of herbicidal efficacy or phytotoxicity) | 4 (90%-100% of herbicidal efficacy or phytotoxicity) | 1 (1%-39% of herbicidal efficacy or phytotoxicity) | 4 (90%-100% of herbicidal efficacy or phytotoxicity) | ≧30
CCCCC(CC)COC(=O)N(c1ccccc1CN1CC(C)(C)OC1=O)S(=O)(=O)C(F)(F)F (centres unmarked) [1-68] | 4 (90%-100% of herbicidal efficacy or phytotoxicity) | 4 (90%-100% of herbicidal efficacy or phytotoxicity) | 4 (90%-100% of herbicidal efficacy or phytotoxicity) | 4 (90%-100% of herbicidal efficacy or phytotoxicity) | 4 (90%-100% of herbicidal efficacy or phytotoxicity) | 1 (1%-39% of herbicidal efficacy or phytotoxicity) | 4 (90%-100% of herbicidal efficacy or phytotoxicity) | 10
CC1(C2CC2)CN(Cc2ccccc2NS(=O)(=O)C(F)(F)F)C(=O)O1 (centres unmarked) [1-71] | 4 (90%-100% of herbicidal efficacy or phytotoxicity) | 4 (90%-100% of herbicidal efficacy or phytotoxicity) | 4 (90%-100% of herbicidal efficacy or phytotoxicity) | 4 (90%-100% of herbicidal efficacy or phytotoxicity) | 4 (90%-100% of herbicidal efficacy or phytotoxicity) | 1 (1%-39% of herbicidal efficacy or phytotoxicity) | 4 (90%-100% of herbicidal efficacy or phytotoxicity) | 10
CC(C)COC(=O)N(c1ccccc1CN1CC(C)(C2CC2)OC1=O)S(=O)(=O)C(F)(F)F (centres unmarked) [1-72] | 4 (90%-100% of herbicidal efficacy or phytotoxicity) | 4 (90%-100% of herbicidal efficacy or phytotoxicity) | 4 (90%-100% of herbicidal efficacy or phytotoxicity) | 4 (90%-100% of herbicidal efficacy or phytotoxicity) | 4 (90%-100% of herbicidal efficacy or phytotoxicity) | 1 (1%-39% of herbicidal efficacy or phytotoxicity) | 4 (90%-100% of herbicidal efficacy or phytotoxicity) | 10
CCCOC(=O)N(c1ccccc1CN1CC(C)(C)OC1=O)S(=O)(=O)C(F)(F)F [1-75] | 4 (90%-100% of herbicidal efficacy or phytotoxicity) | 4 (90%-100% of herbicidal efficacy or phytotoxicity) | 4 (90%-100% of herbicidal efficacy or phytotoxicity) | 4 (90%-100% of herbicidal efficacy or phytotoxicity) | 4 (90%-100% of herbicidal efficacy or phytotoxicity) | 1 (1%-39% of herbicidal efficacy or phytotoxicity) | 4 (90%-100% of herbicidal efficacy or phytotoxicity) | ≧30
CC(C)OC(=O)N(c1ccccc1CN1CC(C)(C)OC1=O)S(=O)(=O)C(F)(F)F [1-76] | 4 (90%-100% of herbicidal efficacy or phytotoxicity) | 4 (90%-100% of herbicidal efficacy or phytotoxicity) | 4 (90%-100% of herbicidal efficacy or phytotoxicity) | 4 (90%-100% of herbicidal efficacy or phytotoxicity) | 4 (90%-100% of herbicidal efficacy or phytotoxicity) | 2 (40%-69% of herbicidal efficacy or phytotoxicity) | 4 (90%-100% of herbicidal efficacy or phytotoxicity) | 30
CC(C)OCCOC(=O)N(c1ccccc1CN1CC(C)(C)OC1=O)S(=O)(=O)C(F)(F)F [1-78] | 4 (90%-100% of herbicidal efficacy or phytotoxicity) | 4 (90%-100% of herbicidal efficacy or phytotoxicity) | 4 (90%-100% of herbicidal efficacy or phytotoxicity) | 4 (90%-100% of herbicidal efficacy or phytotoxicity) | 4 (90%-100% of herbicidal efficacy or phytotoxicity) | 1 (1%-39% of herbicidal efficacy or phytotoxicity) | 4 (90%-100% of herbicidal efficacy or phytotoxicity) | 10
